Assay results reported in ChEMBL document CHEMBL1201862, “PubChem BioAssay data set” (2004).
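Following 48 hours of exposure in 96-well plates, responses at five concentrations were used to interpolate endpoints linearly. GI50: concentration for 50% inhibition of growth.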 Calls of active or inactive are those of the source. Cut-off read from the data, not from the text of the source: active = GI50 up to about 1.1 µM and inactive = higher.

Experiments:
Experiment in all cases: inhibition of tumour cell growth, NCI panel, 48 h
MCF7 = system: MCF7
DU-145 = system: DU-145
OVCAR-3 = system: OVCAR-3
CCRF-CEM = system: CCRF-CEM
UACC-62 = system: UACC-62
MDA-MB-435 = system: MDA-MB-435
OVCAR-4 = system: OVCAR-4
SR = system: SR
NCI-H226 = system: NCI-H226
SF-268 = system: SF-268
SNB-19 = system: SNB-19
KM12 = system: KM12
SK-MEL-28 = system: SK-MEL-28
A549 = system: A549
BT-549 = system: BT-549
U-251 = system: U-251
HCC 2998 = system: HCC 2998
T47D = system: T47D
NCI-H23 = system: NCI-H23
LOX IMVI = system: LOX IMVI
HCT-116 = system: HCT-116
SF-295 = system: SF-295
SNB-75 = system: SNB-75
SK-MEL-2 = system: SK-MEL-2
SW-620 = system: SW-620
IGROV-1 = system: IGROV-1
A498 = system: A498
RPMI-8226 = system: RPMI-8226
MDA-MB-231 = system: MDA-MB-231
PC-3 = system: PC-3
HOP-92 = system: HOP-92
HCT-15 = system: HCT-15
OVCAR-8 = system: OVCAR-8
Hs-578T = system: Hs-578T
K562 = system: K562
TK-10 = system: TK-10
EKVX = system: EKVX
UACC-257 = system: UACC-257
CAKI-1 = system: CAKI-1
NCI-H460 = system: NCI-H460
NCI-H522 = system: NCI-H522
MDA-N = system: MDA-N
ACHN = system: ACHN
SN12C = system: SN12C
M14 = system: M14
SF-539 = system: SF-539
COLO 205 = system: COLO 205
MOLT-4 = system: MOLT-4
786-0 = system: 786-0
OVCAR-5 = system: OVCAR-5
SK-MEL-5 = system: SK-MEL-5
HL-60 = system: HL-60
Malme-3M = system: Malme-3M
HOP-62 = system: HOP-62
SK-OV-3 = system: SK-OV-3
HT-29 = system: HT-29
UO-31 = system: UO-31
NCI/ADR-RES = system: NCI/ADR-RES
RXF 393 = system: RXF 393

How did the GI50 (MCF7) turn out when Cc1c(Cl)cccc1NC(=O)/C=C/c1ccccc1 was run?
The GI50 was > 100 µM (inactive).

What about the GI50 (DU-145) of the same compound?
The GI50 was > 100 µM (inactive).

And the GI50 (OVCAR-3)?
Its GI50 is > 100 µM (inactive).

What about the GI50 (CCRF-CEM) of the same compound?
The GI50 was > 100 µM (inactive).

And the GI50 (UACC-62)?
Its GI50 is > 100 µM (inactive).

And the GI50 (MDA-MB-435)?
The GI50 was > 100 µM (inactive).

And the GI50 (OVCAR-4)?
The GI50 was > 100 µM (inactive).

And the GI50 (SR)?
The GI50 was 50.7 µM (inactive).

What about the GI50 (NCI-H226) of the same compound?
The GI50 was 60.1 µM (inactive).

What about the GI50 (SF-268) of the same compound?
The GI50 was 74.1 µM (inactive).

What about the GI50 (SNB-19) of the same compound?
Its GI50 is 45.6 µM (inactive).

What about the GI50 (KM12) of the same compound?
Its GI50 is 77.8 µM (inactive).

And the GI50 (SK-MEL-28)?
The GI50 was 88.5 µM (inactive).

And the GI50 (A549)?
Its GI50 is > 100 µM (inactive).

And the GI50 (BT-549)?
The GI50 was > 100 µM (inactive).

What about the GI50 (U-251) of the same compound?
The GI50 was > 100 µM (inactive).

What about the GI50 (HCC 2998) of the same compound?
The GI50 was > 100 µM (inactive).

And the GI50 (T47D)?
Its GI50 is > 100 µM (inactive).

And the GI50 (NCI-H23)?
The GI50 was > 100 µM (inactive).

And the GI50 (LOX IMVI)?
The GI50 was > 100 µM (inactive).

What about the GI50 (HCT-116) of the same compound?
The GI50 was > 100 µM (inactive).

And the GI50 (SF-295)?
Its GI50 is > 100 µM (inactive).

What about the GI50 (SNB-75) of the same compound?
The GI50 was 22.8 µM (inactive).

What about the GI50 (SK-MEL-2) of the same compound?
Its GI50 is > 100 µM (inactive).

And the GI50 (SW-620)?
Its GI50 is > 100 µM (inactive).

What about the GI50 (IGROV-1) of the same compound?
Its GI50 is > 100 µM (inactive).

And the GI50 (A498)?
The GI50 was > 100 µM (inactive).

And the GI50 (RPMI-8226)?
The GI50 was 97.9 µM (inactive).

And the GI50 (MDA-MB-231)?
Its GI50 is 17.7 µM (inactive).

What about the GI50 (PC-3) of the same compound?
Its GI50 is > 100 µM (inactive).

What about the GI50 (HOP-92) of the same compound?
Its GI50 is 21 µM (inactive).

And the GI50 (HCT-15)?
Its GI50 is greater than 100 µM.

And the GI50 (OVCAR-8)?
The GI50 was 38 µM (inactive).

And the GI50 (Hs-578T)?
The GI50 was 38.3 µM (inactive).

And the GI50 (K562)?
Its GI50 is > 100 µM (inactive).

What about the GI50 (TK-10) of the same compound?
The GI50 was > 100 µM (inactive).

And the GI50 (EKVX)?
Its GI50 is 55.8 µM (inactive).

What about the GI50 (UACC-257) of the same compound?
Its GI50 is > 100 µM (inactive).

What about the GI50 (CAKI-1) of the same compound?
The GI50 was 16.3 µM (inactive).

What about the GI50 (NCI-H460) of the same compound?
Its GI50 is > 100 µM (inactive).

And the GI50 (NCI-H522)?
The GI50 was > 100 µM (inactive).

And the GI50 (MDA-N)?
The GI50 was > 100 µM (inactive).

What about the GI50 (ACHN) of the same compound?
Its GI50 is 89.5 µM (inactive).

What about the GI50 (SN12C) of the same compound?
The GI50 was > 100 µM (inactive).

And the GI50 (M14)?
The GI50 was > 100 µM (inactive).

And the GI50 (SF-539)?
Its GI50 is 43 µM (inactive).

What about the GI50 (COLO 205) of the same compound?
Its GI50 is > 100 µM (inactive).

And the GI50 (MOLT-4)?
Its GI50 is > 100 µM (inactive).

What about the GI50 (786-0) of the same compound?
Its GI50 is 62.7 µM (inactive).

What about the GI50 (OVCAR-5) of the same compound?
The GI50 was > 100 µM (inactive).

And the GI50 (SK-MEL-5)?
The GI50 was > 100 µM (inactive).

What about the GI50 (HL-60) of the same compound?
Its GI50 is > 100 µM (inactive).

And the GI50 (Malme-3M)?
Its GI50 is > 100 µM (inactive).

And the GI50 (HOP-62)?
The GI50 was > 100 µM (inactive).

And the GI50 (SK-OV-3)?
The GI50 was > 100 µM (inactive).

And the GI50 (HT-29)?
Its GI50 is > 100 µM (inactive).

CC(C)(C)NC(NC(C)(C)C)=C(C(Cl)=C(Cl)Cl)[N+](=O)[O-] was tested. Which GI50 (MCF7) did it give?
Its GI50 is > 100 µM (inactive).

What about the GI50 (DU-145) of the same compound?
The GI50 was > 100 µM (inactive).

And the GI50 (OVCAR-3)?
Its GI50 is > 100 µM (inactive).

And the GI50 (CCRF-CEM)?
Its GI50 is > 100 µM (inactive).

And the GI50 (UACC-62)?
Its GI50 is > 100 µM (inactive).

And the GI50 (OVCAR-4)?
The GI50 was > 100 µM (inactive).

What about the GI50 (SR) of the same compound?
The GI50 was > 100 µM (inactive).

And the GI50 (NCI-H226)?
The GI50 was > 100 µM (inactive).

What about the GI50 (UO-31) of the same compound?
The GI50 was 42.7 µM (inactive).

What about the GI50 (SF-268) of the same compound?
The GI50 was > 100 µM (inactive).

And the GI50 (SNB-19)?
Its GI50 is 10.1 µM (inactive).

And the GI50 (KM12)?
The GI50 was > 100 µM (inactive).

And the GI50 (SK-MEL-28)?
Its GI50 is > 100 µM (inactive).

What about the GI50 (A549) of the same compound?
The GI50 was > 100 µM (inactive).

What about the GI50 (BT-549) of the same compound?
The GI50 was > 100 µM (inactive).

What about the GI50 (NCI/ADR-RES) of the same compound?
The GI50 was > 100 µM (inactive).

What about the GI50 (U-251) of the same compound?
Its GI50 is > 100 µM (inactive).

What about the GI50 (HCC 2998) of the same compound?
Its GI50 is > 100 µM (inactive).

And the GI50 (T47D)?
Its GI50 is > 100 µM (inactive).

And the GI50 (NCI-H23)?
Its GI50 is > 100 µM (inactive).

And the GI50 (LOX IMVI)?
The GI50 was > 100 µM (inactive).

And the GI50 (HCT-116)?
Its GI50 is > 100 µM (inactive).

And the GI50 (SF-295)?
Its GI50 is > 100 µM (inactive).

What about the GI50 (SNB-75) of the same compound?
The GI50 was > 100 µM (inactive).

And the GI50 (SW-620)?
Its GI50 is > 100 µM (inactive).

What about the GI50 (IGROV-1) of the same compound?
The GI50 was > 100 µM (inactive).

And the GI50 (A498)?
The GI50 was > 100 µM (inactive).

And the GI50 (RPMI-8226)?
Its GI50 is > 100 µM (inactive).

What about the GI50 (MDA-MB-231) of the same compound?
Its GI50 is > 100 µM (inactive).

And the GI50 (PC-3)?
Its GI50 is > 100 µM (inactive).

What about the GI50 (HCT-15) of the same compound?
Its GI50 is greater than 100 µM.

And the GI50 (OVCAR-8)?
Its GI50 is > 100 µM (inactive).

What about the GI50 (Hs-578T) of the same compound?
Its GI50 is 29.4 µM (inactive).

And the GI50 (K562)?
The GI50 was > 100 µM (inactive).

What about the GI50 (TK-10) of the same compound?
The GI50 was > 100 µM (inactive).

What about the GI50 (EKVX) of the same compound?
Its GI50 is > 100 µM (inactive).

What about the GI50 (UACC-257) of the same compound?
The GI50 was 67.6 µM (inactive).

And the GI50 (CAKI-1)?
The GI50 was > 100 µM (inactive).

What about the GI50 (NCI-H460) of the same compound?
The GI50 was > 100 µM (inactive).

And the GI50 (RXF 393)?
The GI50 was > 100 µM (inactive).

What about the GI50 (MDA-N) of the same compound?
The GI50 was > 100 µM (inactive).

What about the GI50 (ACHN) of the same compound?
Its GI50 is > 100 µM (inactive).

What about the GI50 (SN12C) of the same compound?
Its GI50 is > 100 µM (inactive).

What about the GI50 (M14) of the same compound?
Its GI50 is > 100 µM (inactive).

And the GI50 (SF-539)?
Its GI50 is > 100 µM (inactive).

And the GI50 (COLO 205)?
The GI50 was > 100 µM (inactive).

And the GI50 (MOLT-4)?
The GI50 was > 100 µM (inactive).

And the GI50 (786-0)?
Its GI50 is > 100 µM (inactive).

What about the GI50 (OVCAR-5) of the same compound?
The GI50 was > 100 µM (inactive).

And the GI50 (SK-MEL-5)?
The GI50 was > 100 µM (inactive).

And the GI50 (HL-60)?
Its GI50 is > 100 µM (inactive).

And the GI50 (Malme-3M)?
Its GI50 is > 100 µM (inactive).

What about the GI50 (HOP-62) of the same compound?
Its GI50 is > 100 µM (inactive).

What about the GI50 (SK-OV-3) of the same compound?
Its GI50 is > 100 µM (inactive).

And the GI50 (HT-29)?
Its GI50 is > 100 µM (inactive).
